Read-outs that look alike come from different tables or passages of the source. Where a SMILES comes first, the peptide text is derived from it. Bridges are numbered along the chain shown (N, C = ends). [ ]: non-standard residue; d: D form. Nle = CCCC[C@H](N)C(=O)O
Legend:
[1] = molecular target: T1, human opioid receptor KOR (Homo sapiens, UniProt P41145); assay: Radioligand binding assay, displacement of [3H]U-69593; details: displacement of [3H]U-69593 from membranes of CHO cells transfected with human KOR, 50 mM Tris/HCl pH 7.4, 0.5% BSA, peptidase inhibitors, 2 h at 25 °C, mean ± SEM, n ≥ 3
T1 construct: purchased PerkinElmer (Krakow, Poland); host or cells: CHO cell membranes
Experimental: (§1) A radioligand binding assay was performed to determine the opioid receptor (OR) binding affinities of the novel analogs using commercially available membranes of Chinese hamster ovary cells (CHO) transfected with human recombinant ORs. [^3H]DAMGO, [^3H]deltorphin-2, and [^3H]U-69593 were used as the radioligands for MOR, DOR, and KOR, respectively. Tyr-[D-Lys-Phe-Phe-Asp]NH2 (1) was used as a reference opioid compound. […] None of them acquired significant DOR affinity.
(§2) To determine the affinity of peptide analogs to respective receptors, competition binding experiments were performed, as described in detail elsewhere.
(§3) Commercial membranes of CHO cells stably expressing either human ORs or NK1 receptor were used. [^3H]DAMGO, [^3H]deltorphin-2, and [^3H]U-69593 were employed as the competing radioligands for MOR, DOR, and KOR, respectively, while [^3H][Sar^9, Met(O2)^11]SP was utilized for the NK1 receptor. Membranes were incubated in a 0.5 mL volume of 50 mM Tris/HCl (pH = 7.4), 0.5% bovine serum albumin (BSA), with a number of peptidase inhibitors (bacitracin, bestatin, captopril) and various concentrations of radioligands for 2 h at 25 °C. Nonspecific binding was assessed in the presence of […] naloxone for ORs or SP for NK1 receptor.
(§4) The pharmacological terminology adopted in this paper is consistent with International Union of Basic and Clinical Pharmacology (IUPHAR) recommendations. Concentration–response curves were analyzed by nonlinear regression using Graph Pad Prism 6.0 (La Jolla, CA, USA). […]. […] Concentration–response curves were fitted with the four-parameter logistic nonlinear regression model (1) Effect=baseline+Emax−baseline/1+10^logEC50−X·n where X is the agonist concentration and n is the Hill coefficient. Ligand efficacy was expressed as intrinsic activity (α) calculated as a ratio of the peptide Emax to the Emax of the standard agonist (Supplementary Materials, Figure S7). […]. All statistical analyses were performed using Graph Pad Prism 6.0 (La Jolla, CA, USA). Differences between groups were analyzed with one-way ANOVA and a post hoc multiple comparison by the Student–Newman–Keuls test. A probability level of 0.05 or smaller was used to indicate statistical significance.

human KOR = molecular target: T2, human KOR (Homo sapiens, UniProt P41145); assay: Calcium mobilization functional assay, agonist mode; assay type: cell-based; details: for KOR α ± SEM: efficacy (intrinsic activity), Emax relative to dynorphin A, mean ± SEM
T2 construct: expressed in transfected cells; host or cells: CHO cells (University of Ferrara), co-expressing Gαqi5

[2] = molecular target: T3, human opioid receptor MOR (Homo sapiens, UniProt P35372); assay: Radioligand binding assay, displacement of [3H]DAMGO; details: displacement of [3H]DAMGO from membranes of CHO cells transfected with human MOR, 50 mM Tris/HCl pH 7.4, 0.5% BSA, peptidase inhibitors, 2 h at 25 °C, mean ± SEM, n ≥ 3
T3 construct: purchased PerkinElmer (Krakow, Poland); host or cells: CHO cell membranes
Experimental: as §1, §2, §3, §4

mice = assay: Tolerance development, writhing test after repeated injections; assay type: in vivo; details: 5 mg/kg i.p. once daily for seven days, writhing test on Day 7, n = 10
Experimental: To examine whether mice developed tolerance to hybrids 2 and 4, these analogs and analog 1 for comparison were injected once daily (5 mg/kg) for seven consecutive days. After repeated administration, the antinociceptive effect was determined on Day 7, performing the writhing test as above.
Figure 4 A comparison of the antinociceptive effect of single (Day 1) and repeated (Day 7) i.p. injections of opioid analog 1 and hybrids 2 and 4 at the dose of 5 mg/kg in the writhing test in mice. The data represent mean ± SEM, n = 10. Statistical significance was assessed using one-way ANOVA and a post hoc multiple comparison by the Student–Newman–Keuls test. *** p < 0.001, as compared to control.
Peptides were administered at the highest dose (5 mg/kg) used before in the writhing test. In the experiment, four new groups of animals (10 mice per group, housed in one cage) underwent repeated injections (i.p.) of saline or the tested compounds (Days 1–7). On Day 7, following saline or peptide administration, the writhing test was performed, as described above. The antinociceptive activity of a compound was compared to the activity obtained after a single injection of this compound in the corresponding dose (5 mg/kg).

human NK1 = human NK1 (Homo sapiens, UniProt P25103); assay: Calcium mobilization assay, inhibition response experiments against SP; assay type: cell-based; design: expressed in transfected cells; host or cells: CHO cells (gift of Prof. T. Costa, ISS, Rome)
Experimental: Following aspiration of the loading solution and a washing step, serial dilutions of peptide stock solutions were added.
The pharmacological terminology adopted in this paper is consistent with International Union of Basic and Clinical Pharmacology (IUPHAR) recommendations. Concentration–response curves were analyzed by nonlinear regression using Graph Pad Prism 6.0 (La Jolla, CA, USA). […] Concentration–response curves were fitted with the four-parameter logistic nonlinear regression model (1) Effect=baseline+Emax−baseline/1+10^logEC50−X·n where X is the agonist concentration and n is the Hill coefficient. Ligand efficacy was expressed as intrinsic activity (α) calculated as a ratio of the peptide Emax to the Emax of the standard agonist (Supplementary Materials, Figure S7). […] All statistical analyses were performed using Graph Pad Prism 6.0 (La Jolla, CA, USA). Differences between groups were analyzed with one-way ANOVA and a post hoc multiple comparison by the Student–Newman–Keuls test. A probability level of 0.05 or smaller was used to indicate statistical significance.

[3] = CHO cells co-expressing human KOR and Gαqi5, n = 5

T2 sequence (P41145 whole entry): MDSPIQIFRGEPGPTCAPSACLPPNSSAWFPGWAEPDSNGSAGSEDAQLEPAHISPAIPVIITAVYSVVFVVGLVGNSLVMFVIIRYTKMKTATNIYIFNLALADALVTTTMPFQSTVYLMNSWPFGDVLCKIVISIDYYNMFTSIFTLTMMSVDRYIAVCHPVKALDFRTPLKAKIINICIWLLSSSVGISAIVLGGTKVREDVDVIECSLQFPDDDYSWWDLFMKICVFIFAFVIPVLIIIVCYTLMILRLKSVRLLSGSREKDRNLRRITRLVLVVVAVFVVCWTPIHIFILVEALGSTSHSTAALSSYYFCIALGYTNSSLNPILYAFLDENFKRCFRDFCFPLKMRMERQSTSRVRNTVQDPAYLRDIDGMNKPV
T3 sequence (P35372 whole entry): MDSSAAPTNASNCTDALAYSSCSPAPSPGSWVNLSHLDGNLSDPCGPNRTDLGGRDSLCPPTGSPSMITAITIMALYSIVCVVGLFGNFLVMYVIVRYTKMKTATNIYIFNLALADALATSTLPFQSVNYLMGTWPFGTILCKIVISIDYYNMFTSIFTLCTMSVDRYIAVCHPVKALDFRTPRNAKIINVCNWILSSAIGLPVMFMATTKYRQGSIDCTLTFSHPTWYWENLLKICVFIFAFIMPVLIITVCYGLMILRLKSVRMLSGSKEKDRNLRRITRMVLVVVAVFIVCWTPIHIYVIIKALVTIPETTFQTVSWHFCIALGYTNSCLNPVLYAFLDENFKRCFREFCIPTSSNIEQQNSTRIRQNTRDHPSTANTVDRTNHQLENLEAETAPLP
T1 sequence (P41145 whole entry): as the sequence (P41145 whole entry) above
human NK1, sequence (P25103 whole entry): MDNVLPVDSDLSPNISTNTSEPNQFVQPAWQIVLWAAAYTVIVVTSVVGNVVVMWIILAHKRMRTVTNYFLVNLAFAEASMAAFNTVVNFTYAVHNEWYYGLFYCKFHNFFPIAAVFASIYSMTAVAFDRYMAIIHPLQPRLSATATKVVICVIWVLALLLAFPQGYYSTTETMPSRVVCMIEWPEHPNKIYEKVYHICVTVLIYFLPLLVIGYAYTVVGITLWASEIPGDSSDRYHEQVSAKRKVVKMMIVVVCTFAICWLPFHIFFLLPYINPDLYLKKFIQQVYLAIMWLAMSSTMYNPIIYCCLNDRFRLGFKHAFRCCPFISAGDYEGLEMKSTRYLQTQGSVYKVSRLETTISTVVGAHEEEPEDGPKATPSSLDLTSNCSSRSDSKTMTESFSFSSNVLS

SMILES | Ki [1] [nM] | EC50 (human KOR) [nM] | KOR α ± SEM (human KOR; [3]) | Ki [2] [nM] | tolerance development (analgesic activity on Day 7 versus Day 1) (mice) | EC50 (human KOR; CHO cells co-expressing human KOR and Gαqi5, Fluo-4 AM calcium signal, n = 5, read-out: KOR pEC50 (CL95%) (converted)) [nM] | Kb (human NK1) [nM]
CSCC[C@H](NC(=O)[C@H](CC(C)C)NC(=O)CNC(=O)[C@H](Cc1ccccc1)NC(=O)[C@H](Cc1ccccc1)NC(=O)[C@H](CCC(N)=O)NC(=O)[C@@H]1CC(=O)NCCCC[C@@H](NC(=O)[C@@H](N)Cc2ccc(O)cc2)C(=O)N[C@@H](Cc2ccccc2)C(=O)N[C@@H](Cc2ccccc2)C(=O)N1)C(N)=O [compound 4, Tyr-[D-Lys-Phe-Phe-Asp]-Gln-Phe-Phe-Gly-Leu-Met-NH2] (H-Y[dK]FFDQFFGLM-NH2; lactam 2-5) | 10.8 ± 0.85 | 14.1 | 0.92 ± 0.05 | 7.98 ± 0.97 | did not cause tolerance development |  | 
CCCC[C@H](NC(=O)[C@H](CC(C)C)NC(=O)[C@@H](Cc1c[nH]c2ccccc12)NC(=O)[C@H](Cc1ccccc1)NC(=O)[C@@H](Cc1c[nH]c2ccccc12)NC(=O)[C@H](CC(N)=O)NC(=O)[C@@H]1CC(=O)NCCCC[C@@H](NC(=O)[C@@H](N)Cc2ccc(O)cc2)C(=O)N[C@@H](Cc2ccccc2)C(=O)N[C@@H](Cc2ccccc2)C(=O)N1)C(N)=O [compound 2, Tyr-[D-Lys-Phe-Phe-Asp]-Asn-D-Trp-Phe-D-Trp-Leu-Nle-NH2] (H-Y[dK]FFDN[dW]F[dW]L[Nle]-NH2; lactam 2-5) | 7.46 ± 0.6 |  | 0.99 ± 0.05 | 5.99 ± 0.7 | did not cause tolerance development | 9.77 | 46.8

From publication PMC6943619, “Synthesis and Pharmacological Evaluation of Hybrids Targeting Opioid and Neurokinin Receptors” (Molecules, 2019)
